According to patent US6518243B1, “Desleucyl glycopeptide antibiotics and methods of making same” (Trustees of Princeton University, priority 1999, dated 2003):

Tests used:
Assay in all cases: Zone of inhibition screen, 96 well agar array format
Assay type in all cases: cell-based
Design in all cases: scale not given here
Conditions in all cases: zone of inhibition relative to 1 mg/ml p-chlorobiphenylvancomycin
[1] = system: E. faecalis (CL 4877)
Summary of the method: (§1)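 Compounds are screened one by one for antibacterial effect in an agar array of 96 wells, using the same set of strains throughout.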

[2] = system: S. aureus (ATCC 29213)
Summary of the method: as §1

[3] = system: S. epidermidis (ATCC 12228)
Summary of the method: as §1

Compound | zone score, E. faecalis CL 4877 [1] | zone score, S. aureus ATCC 29213 [2] | zone score, S. epidermidis ATCC 12228 [3]
CC(NC(=O)CNC(=O)CNC(=O)OCc1ccccc1)C(=O)NC1C(=O)NC(CC(N)=O)C(=O)NC2C(=O)NC3C(=O)NC(C(=O)NC(C(=O)O)c4cc(O)cc(O)c4-c4cc3ccc4O)C(O)c3ccc(c(Cl)c3)Oc3cc2cc(c3OC2OC(CO)C(O)C(O)C2OC2CC(C)(NCc3ccc(-c4ccc(Cl)cc4)cc3)C(O)C(C)O2)Oc2ccc(cc2Cl)C1O (stereo not drawn) [Compound 213] | 2 | 2 | 2
CC1OC(OC2C(Oc3c4cc5cc3Oc3ccc(cc3Cl)C(O)C3NC(=O)C(NC(=O)C5NC(=O)C(CC(N)=O)NC(=O)C(NC(=O)C5CSC(=O)N5)C(O)c5ccc(c(Cl)c5)O4)c4ccc(O)c(c4)-c4c(O)cc(O)cc4C(C(=O)O)NC3=O)OC(CO)C(O)C2O)CC(C)(NCc2ccc(-c3ccc(Cl)cc3)cc2)C1O (stereo not drawn) [Compound 224] | 2 | 2 | 2
CC1OC(OC2C(Oc3c4cc5cc3Oc3ccc(cc3Cl)C(O)C3NC(=O)C(NC(=O)C5NC(=O)C(CC(N)=O)NC(=O)C(NC(=O)c5cccn5C)C(O)c5ccc(c(Cl)c5)O4)c4ccc(O)c(c4)-c4c(O)cc(O)cc4C(C(=O)O)NC3=O)OC(CO)C(O)C2O)CC(C)(NCc2ccc(-c3ccc(Cl)cc3)cc2)C1O (stereo not drawn) [Compound 229] | 2 | 2 | 2
CC1OC(OC2C(Oc3c4cc5cc3Oc3ccc(cc3Cl)C(O)C3NC(=O)C(NC(=O)C5NC(=O)C(CC(N)=O)NC(=O)C(NC(=O)Cc5ccc(Cl)cc5Cl)C(O)c5ccc(c(Cl)c5)O4)c4ccc(O)c(c4)-c4c(O)cc(O)cc4C(C(=O)O)NC3=O)OC(CO)C(O)C2O)CC(C)(NCc2ccc(-c3ccc(Cl)cc3)cc2)C1O (stereo not drawn) [Compound 234] | 2 | 2 | 2
COc1ccc(CCC(=O)NC2C(=O)NC(CC(N)=O)C(=O)NC3C(=O)NC4C(=O)NC(C(=O)NC(C(=O)O)c5cc(O)cc(O)c5-c5cc4ccc5O)C(O)c4ccc(c(Cl)c4)Oc4cc3cc(c4OC3OC(CO)C(O)C(O)C3OC3CC(C)(NCc4ccc(-c5ccc(Cl)cc5)cc4)C(O)C(C)O3)Oc3ccc(cc3Cl)C2O)cc1OC (stereo not drawn) [Compound 245] | 2 | 2 | 2
COc1ccc(C(=O)NC2C(=O)NC(CC(N)=O)C(=O)NC3C(=O)NC4C(=O)NC(C(=O)NC(C(=O)O)c5cc(O)cc(O)c5-c5cc4ccc5O)C(O)c4ccc(c(Cl)c4)Oc4cc3cc(c4OC3OC(CO)C(O)C(O)C3OC3CC(C)(NCc4ccc(-c5ccc(Cl)cc5)cc4)C(O)C(C)O3)Oc3ccc(cc3Cl)C2O)cc1OC (stereo not drawn) [Compound 253] | 2 | 2 | 2
CCOCCC(=O)N[C@H]1C(=O)N[C@@H](CC(N)=O)C(=O)N[C@H]2C(=O)N[C@H]3C(=O)N[C@H](C(=O)N[C@@H](C(=O)O)c4cc(O)cc(O)c4-c4cc3ccc4O)[C@H](O)c3ccc(c(Cl)c3)Oc3cc2cc(c3O[C@@H]2O[C@H](CO)[C@@H](O)[C@H](O)[C@H]2O[C@@H]2C[C@@](C)(NCc3ccc(-c4ccc(Cl)cc4)cc3)[C@@H](O)[C@@H](C)O2)Oc2ccc(cc2Cl)[C@H]1O [Compound 258] | 2 | 2 | 2
CC1OC(OC2C(Oc3c4cc5cc3Oc3ccc(cc3Cl)C(O)C3NC(=O)C(NC(=O)C5NC(=O)C(CC(N)=O)NC(=O)C(NC(=O)c5cccc(O)c5)C(O)c5ccc(c(Cl)c5)O4)c4ccc(O)c(c4)-c4c(O)cc(O)cc4C(C(=O)O)NC3=O)OC(CO)C(O)C2O)CC(C)(NCc2ccc(-c3ccc(Cl)cc3)cc2)C1O (stereo not drawn) [Compound 261] | 2 | 2 | 2
CC(O)CC(=O)N[C@H]1C(=O)N[C@@H](CC(N)=O)C(=O)N[C@H]2C(=O)N[C@H]3C(=O)N[C@H](C(=O)N[C@@H](C(=O)O)c4cc(O)cc(O)c4-c4cc3ccc4O)[C@H](O)c3ccc(c(Cl)c3)Oc3cc2cc(c3O[C@@H]2O[C@H](CO)[C@@H](O)[C@H](O)[C@H]2O[C@@H]2C[C@@](C)(NCc3ccc(-c4ccc(Cl)cc4)cc3)[C@@H](O)[C@@H](C)O2)Oc2ccc(cc2Cl)[C@H]1O (stereo partly drawn) [Compound 262] | 2 | 2 | 2
CC1OC(OC2C(Oc3c4cc5cc3Oc3ccc(cc3Cl)C(O)C3NC(=O)C(NC(=O)C5NC(=O)C(CC(N)=O)NC(=O)C(NC(=O)c5ccc(S(C)(=O)=O)cc5)C(O)c5ccc(c(Cl)c5)O4)c4ccc(O)c(c4)-c4c(O)cc(O)cc4C(C(=O)O)NC3=O)OC(CO)C(O)C2O)CC(C)(NCc2ccc(-c3ccc(Cl)cc3)cc2)C1O (stereo not drawn) [Compound 264] | 0 | 2 | 2
CC(=O)Oc1ccc(C(=O)NC2C(=O)NC(CC(N)=O)C(=O)NC3C(=O)NC4C(=O)NC(C(=O)NC(C(=O)O)c5cc(O)cc(O)c5-c5cc4ccc5O)C(O)c4ccc(c(Cl)c4)Oc4cc3cc(c4OC3OC(CO)C(O)C(O)C3OC3CC(C)(NCc4ccc(-c5ccc(Cl)cc5)cc4)C(O)C(C)O3)Oc3ccc(cc3Cl)C2O)cc1 (stereo not drawn) [Compound 266] | 2 | 2 | 2
CC1OC(OC2C(Oc3c4cc5cc3Oc3ccc(cc3Cl)C(O)C3NC(=O)C(NC(=O)C5NC(=O)C(CC(N)=O)NC(=O)C(NC(=O)c5ccc(S(N)(=O)=O)cc5)C(O)c5ccc(c(Cl)c5)O4)c4ccc(O)c(c4)-c4c(O)cc(O)cc4C(C(=O)O)NC3=O)OC(CO)C(O)C2O)CC(C)(NCc2ccc(-c3ccc(Cl)cc3)cc2)C1O (stereo not drawn) [Compound 269] | 2 | 2 | 2
CC1OC(OC2C(Oc3c4cc5cc3Oc3ccc(cc3Cl)C(O)C3NC(=O)C(NC(=O)C5NC(=O)C(CC(N)=O)NC(=O)C(NC(=O)c5ccc(F)cc5)C(O)c5ccc(c(Cl)c5)O4)c4ccc(O)c(c4)-c4c(O)cc(O)cc4C(C(=O)O)NC3=O)OC(CO)C(O)C2O)CC(C)(NCc2ccc(-c3ccc(Cl)cc3)cc2)C1O (stereo not drawn) [Compound 270] | 2 | 2 | 2
CC1OC(OC2C(Oc3c4cc5cc3Oc3ccc(cc3Cl)C(O)C3NC(=O)C(NC(=O)C5NC(=O)C(CC(N)=O)NC(=O)C(NC(=O)c5c[nH]cn5)C(O)c5ccc(c(Cl)c5)O4)c4ccc(O)c(c4)-c4c(O)cc(O)cc4C(C(=O)O)NC3=O)OC(CO)C(O)C2O)CC(C)(NCc2ccc(-c3ccc(Cl)cc3)cc2)C1O (stereo not drawn) [Compound 272] | 2 | 2 | 2
CC1OC(OC2C(Oc3c4cc5cc3Oc3ccc(cc3Cl)C(O)C3NC(=O)C(NC(=O)C5NC(=O)C(CC(N)=O)NC(=O)C(NC(=O)c5ccc(N)cc5O)C(O)c5ccc(c(Cl)c5)O4)c4ccc(O)c(c4)-c4c(O)cc(O)cc4C(C(=O)O)NC3=O)OC(CO)C(O)C2O)CC(C)(NCc2ccc(-c3ccc(Cl)cc3)cc2)C1O (stereo not drawn) [Compound 274] | 2 | 2 | 2
Cc1oncc1C(=O)NC1C(=O)NC(CC(N)=O)C(=O)NC2C(=O)NC3C(=O)NC(C(=O)NC(C(=O)O)c4cc(O)cc(O)c4-c4cc3ccc4O)C(O)c3ccc(c(Cl)c3)Oc3cc2cc(c3OC2OC(CO)C(O)C(O)C2OC2CC(C)(NCc3ccc(-c4ccc(Cl)cc4)cc3)C(O)C(C)O2)Oc2ccc(cc2Cl)C1O (stereo not drawn) [Compound 275] | 2 | 2 | 2
CC1OC(OC2C(Oc3c4cc5cc3Oc3ccc(cc3Cl)C(O)C3NC(=O)C(NC(=O)C5NC(=O)C(CC(N)=O)NC(=O)C(NC(=O)c5ccc6[nH]nnc6c5)C(O)c5ccc(c(Cl)c5)O4)c4ccc(O)c(c4)-c4c(O)cc(O)cc4C(C(=O)O)NC3=O)OC(CO)C(O)C2O)CC(C)(NCc2ccc(-c3ccc(Cl)cc3)cc2)C1O (stereo not drawn) [Compound 281] | 2 | 2 | 2
CC1OC(OC2C(Oc3c4cc5cc3Oc3ccc(cc3Cl)C(O)C3NC(=O)C(NC(=O)C5NC(=O)C(CC(N)=O)NC(=O)C(NC(=O)C(F)F)C(O)c5ccc(c(Cl)c5)O4)c4ccc(O)c(c4)-c4c(O)cc(O)cc4C(C(=O)O)NC3=O)OC(CO)C(O)C2O)CC(C)(NCc2ccc(-c3ccc(Cl)cc3)cc2)C1O (stereo not drawn) [Compound 285] | 2 | 2 | 2
CC1OC(OC2C(Oc3c4cc5cc3Oc3ccc(cc3Cl)C(O)C(NC(=O)C(F)(F)C(F)(F)C(F)(F)F)C(=O)NC(CC(N)=O)C(=O)NC5C(=O)NC3C(=O)NC(C(=O)NC(C(=O)O)c5cc(O)cc(O)c5-c5cc3ccc5O)C(O)c3ccc(c(Cl)c3)O4)OC(CO)C(O)C2O)CC(C)(NCc2ccc(-c3ccc(Cl)cc3)cc2)C1O (stereo not drawn) [Compound 290] | 2 | 2 | 2
CC1OC(OC2C(Oc3c4cc5cc3Oc3ccc(cc3Cl)C(O)C3NC(=O)C(NC(=O)C5NC(=O)C(CC(N)=O)NC(=O)C(NC(=O)c5cc6ccccc6[nH]5)C(O)c5ccc(c(Cl)c5)O4)c4ccc(O)c(c4)-c4c(O)cc(O)cc4C(C(=O)O)NC3=O)OC(CO)C(O)C2O)CC(C)(NCc2ccc(-c3ccc(Cl)cc3)cc2)C1O (stereo not drawn) [Compound 291] | 2 | 2 | 2
C=C(CC(=O)OC)C(=O)NC1C(=O)NC(CC(N)=O)C(=O)NC2C(=O)NC3C(=O)NC(C(=O)NC(C(=O)O)c4cc(O)cc(O)c4-c4cc3ccc4O)C(O)c3ccc(c(Cl)c3)Oc3cc2cc(c3OC2OC(CO)C(O)C(O)C2OC2CC(C)(NCc3ccc(-c4ccc(Cl)cc4)cc3)C(O)C(C)O2)Oc2ccc(cc2Cl)C1O (stereo not drawn) [Compound 293] | 2 | 2 | 2
